Results published in the supplement of paper PMC13380429.

Assays:
Calu-3 [1] = experiment: cell viability relative to DMSO; higher = less toxic; details: 72 h
U2OS [2] = experiment: as above; details: 72 h
HepG2 [3] = experiment: as above; details: 72 h
Caco-2 [4] = experiment: as above; details: 72 h
Vero E6 [5] = experiment: as above; details: 72 h
A549-ACE2 = experiment: drug-induced phospholipidosis relative to tamoxifen; higher = more phospholipidosis
[6] = system: A549-ACE2 infected with SARS-CoV-2; experiment: SARS-CoV-2 infection rate relative to DMSO; higher = more infection; details: 24 h
[7] = system: A549-ACE2 infected with SARS-CoV-2; experiment: morphology score (similarity to uninfected cells); higher = more like uninfected cells; details: 24 h
Calu-3 [8] = experiment: drug sensitivity score (DSS) for viability; higher = more toxic; extreme values may be limits of the assay; details: 72 h
U2OS [9] = experiment: as above; details: 72 h
HepG2 [10] = experiment: as above; details: 72 h
Caco-2 [11] = experiment: as above; details: 72 h
Vero E6 [12] = experiment: as above; details: 72 h
Calu-3 [13] = experiment: relative viability EC50 (midpoint between 100% and the lowest measured viability); higher = less toxic; details: 72 h
U2OS [14] = experiment: as above; details: 72 h
Caco-2 [15] = experiment: as above; details: 72 h
[16] = system: A549-ACE2 infected with SARS-CoV-2; experiment: cell count relative to DMSO; higher = less toxic; details: 24 h
HepG2 [17] = experiment: relative viability EC50 (midpoint between 100% and the lowest measured viability); higher = less toxic; details: 72 h
Vero E6 [18] = experiment: as above; details: 72 h

O=C(NCc1ccccc1)c1csc(Nc2ccncn2)n1 [thiazovivin]
Details | SARS-CoV-2 infection rate, [6] [%] | cell count, [16] [%] | cell viability, Caco-2 [4] [%] | cell viability, Calu-3 [1] [%] | cell viability, HepG2 [3] [%] | cell viability, U2OS [2] [%] | cell viability, Vero E6 [5] [%] | morphology score, [7]
1 nM | – | – | 95.1 | 102 | 90.1 | 105 | 101 | –
10 nM | – | – | 96.8 | 95.5 | 97.8 | 100 | 101 | –
100 nM | – | – | 97.3 | 109 | 101 | 100 | 99.1 | –
0.1 µM | 98 | 115 | – | – | – | – | – | 0.31
0.3 µM | 101 | 108 | – | – | – | – | – | 0.18
1000 nM | – | – | 100 | 126 | 93.8 | 93.9 | 88.7 | –
1 µM | 98 | 90 | – | – | – | – | – | 0.16
3 µM | 108 | 88 | – | – | – | – | – | -0.1
10000 nM | – | – | 88.4 | 138 | 73.9 | 85.9 | 64.7 | –

drug-induced phospholipidosis [%], A549-ACE2
Details | 0.3 µM | 0.833333 µM | 3.33333 µM | 6.66667 µM | 10 µM | 30 µM
24 h | -0.85 | -1.1 | -1.59 | -0.13 | 1.72 | 4.97
48 h | -1.39 | -3.9 | -3.92 | -1.45 | -1.05 | 3.79
72 h | -0.652 | -4.81 | -3.84 | -1.69 | 1.23 | –

Details | drug sensitivity score | relative viability EC50 [µM]
Caco-2 [11] | 0 | –
Caco-2 [15] | – | > 10
Calu-3 [8] | 0 | –
Calu-3 [13] | – | > 10
HepG2 [10] | 1.9 | –
U2OS [9] | 0.6 | –
U2OS [14] | – | > 10
Vero E6 [12] | 3.3 | –

Cc1c(Cl)cccc1Nc1ccccc1C(=O)O [tolfenamic-acid]
cell viability [%]
Details | Caco-2 [4] | Calu-3 [1] | HepG2 [3] | U2OS [2] | Vero E6 [5]
1 nM | 95.7 | 98.8 | 98.4 | 98.9 | 98.1
10 nM | 99 | 96.3 | 111 | 95 | 103
100 nM | 102 | 92.7 | 106 | 101 | 90.4
1000 nM | 96.4 | 92.4 | 110 | 101 | 98.8
10000 nM | 107 | 101 | 103 | 98.8 | 101

Details | drug sensitivity score | relative viability EC50 [µM]
Caco-2 [11] | 0 | –
Caco-2 [15] | – | > 10
Calu-3 [8] | 0 | –
Calu-3 [13] | – | > 10
HepG2 [10] | 0 | –
HepG2 [17] | – | > 10
U2OS [9] | 0 | –
U2OS [14] | – | > 10
Vero E6 [12] | 0 | –
Vero E6 [18] | – | > 10
